# Laboratory results published in US12540131B2 (Merck Sharp & Dohme LLC, priority 2019, dated 2026).
# Target: GST tagged truncated human mutant G2019S LRRK2 (Homo sapiens (Human), UniProt Q5S007, G2019S)
# Experiment: LRRK2 Km ATP LanthaScreen Assay
# Type: biochemical
# Conditions: G2019S LRRK2, 134 μM ATP (Km ATP), mean values
# How it was run: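 Enzyme (GST-tagged, truncated) was preincubated with compound for 15 min at RT in 50 mM Tris pH 8.5, 10 mM MgCl2, 0.01% Brij-35, 1 mM EGTA, 2 mM DTT and 0.05 mM orthovanadate. Fluorescein-LRRKtide and 134 μM ATP (Km) were then added for 90 min. EDTA and Tb-anti-pERM antibody stopped the reaction; the TR-FRET 520/495 ratio gave 4-parameter IC50s, reported as mean pIC50.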
# Chain of GST tagged truncated human mutant G2019S LRRK2 (Q5S007 970-2527 G2019S): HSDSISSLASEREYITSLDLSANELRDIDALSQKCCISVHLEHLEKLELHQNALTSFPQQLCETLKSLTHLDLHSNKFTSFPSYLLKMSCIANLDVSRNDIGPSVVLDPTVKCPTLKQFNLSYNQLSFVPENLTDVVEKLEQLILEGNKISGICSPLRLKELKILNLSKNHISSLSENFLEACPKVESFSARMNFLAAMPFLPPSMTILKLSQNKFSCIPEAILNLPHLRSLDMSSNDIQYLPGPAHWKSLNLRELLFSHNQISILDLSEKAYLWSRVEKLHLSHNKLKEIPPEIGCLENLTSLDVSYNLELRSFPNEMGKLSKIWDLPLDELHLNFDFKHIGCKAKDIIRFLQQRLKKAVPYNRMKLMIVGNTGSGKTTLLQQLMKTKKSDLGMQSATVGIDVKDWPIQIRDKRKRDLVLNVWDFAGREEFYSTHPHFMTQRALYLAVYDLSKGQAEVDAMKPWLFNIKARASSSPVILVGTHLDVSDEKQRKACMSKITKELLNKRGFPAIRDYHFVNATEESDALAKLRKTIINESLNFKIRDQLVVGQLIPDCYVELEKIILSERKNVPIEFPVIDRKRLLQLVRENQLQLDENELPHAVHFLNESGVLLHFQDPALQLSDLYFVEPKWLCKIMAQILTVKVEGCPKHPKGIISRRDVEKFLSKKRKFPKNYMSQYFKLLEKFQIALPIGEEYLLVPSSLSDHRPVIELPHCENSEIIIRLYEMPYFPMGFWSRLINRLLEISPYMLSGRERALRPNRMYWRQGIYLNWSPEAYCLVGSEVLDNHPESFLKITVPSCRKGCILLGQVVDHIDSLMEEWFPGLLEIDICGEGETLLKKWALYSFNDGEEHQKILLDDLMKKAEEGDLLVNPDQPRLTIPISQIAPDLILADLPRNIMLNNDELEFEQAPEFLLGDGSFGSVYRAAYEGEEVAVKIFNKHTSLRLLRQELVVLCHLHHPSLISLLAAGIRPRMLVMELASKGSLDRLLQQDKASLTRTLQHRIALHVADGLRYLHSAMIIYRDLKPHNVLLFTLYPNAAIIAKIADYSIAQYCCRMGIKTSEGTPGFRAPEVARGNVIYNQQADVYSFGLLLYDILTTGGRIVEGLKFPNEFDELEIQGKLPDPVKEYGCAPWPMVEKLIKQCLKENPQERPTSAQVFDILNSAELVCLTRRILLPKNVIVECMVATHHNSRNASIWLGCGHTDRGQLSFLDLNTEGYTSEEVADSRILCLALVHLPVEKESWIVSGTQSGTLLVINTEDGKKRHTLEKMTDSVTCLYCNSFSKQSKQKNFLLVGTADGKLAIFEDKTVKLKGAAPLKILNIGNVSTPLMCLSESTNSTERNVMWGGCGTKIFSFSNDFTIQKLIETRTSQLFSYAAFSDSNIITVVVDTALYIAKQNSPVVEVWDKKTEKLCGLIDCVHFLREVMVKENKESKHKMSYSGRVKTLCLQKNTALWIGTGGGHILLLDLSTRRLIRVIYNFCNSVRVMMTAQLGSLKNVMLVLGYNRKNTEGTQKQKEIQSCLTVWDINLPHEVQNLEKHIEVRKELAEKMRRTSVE
row,Compound,LRRK2 pIC50
1,"Cn1ncc(Nc2ncc3cc(Cl)c([C@@H]4CCN([C@@H]5COC[C@@H]5O)C[C@H]4F)cc3n2)c1C1CC1 (single isomer, unassigned) [Ex-4.239, (3S,4S)(3S,4S) or (3S,4S)(3R,4R) or (3R,4R)(3S,4S) or (3R,4R)(3R,4R) 4-(4-{6-chloro-2-[(5-cyclopropyl-1-methyl-1H-pyrazol-4-yl)amino]quinazolin-7-yl}-3-fluoropiperidin-1-yl)oxolan-3-ol]",>9.20
2,"Cn1ncc(Nc2ncc3cc(Cl)c([C@@H]4CCN([C@H]5COC[C@H]5O)C[C@H]4F)cc3n2)c1C1CC1 (single isomer, unassigned) [Ex-4.240, (3S,4S)(3S,4S) or (3S,4S)(3R,4R) or (3R,4R)(3S,4S) or (3R,4R)(3R,4R) 4-(4-{6-chloro-2-[(5-cyclopropyl-1-methyl-1H-pyrazol-4-yl)amino]quinazolin-7-yl}-3-fluoropiperidin-1-yl)oxolan-3-ol]",7.57
3,"Cn1ncc(Nc2ncc3cc(Cl)c([C@H]4CCN([C@@H]5COC[C@@H]5O)C[C@@H]4F)cc3n2)c1C1CC1 (single isomer, unassigned) [Ex-4.241, (3S,4S)(3S,4S) or (3S,4S)(3R,4R) or (3R,4R)(3S,4S) or (3R,4R)(3R,4R) 4-(4-{6-chloro-2-[(5-cyclopropyl-1-methyl-1H-pyrazol-4-yl)amino]quinazolin-7-yl}-3-fluoropiperidin-1-yl)oxolan-3-ol]",>9.20
4,"Cn1ncc(Nc2ncc3cc(Cl)c([C@H]4CCN([C@H]5COC[C@H]5O)C[C@@H]4F)cc3n2)c1C1CC1 (single isomer, unassigned) [Ex-4.242, (3S,4S)(3S,4S) or (3S,4S)(3R,4R) or (3R,4R)(3S,4S) or (3R,4R)(3R,4R) 4-(4-{6-chloro-2-[(5-cyclopropyl-1-methyl-1H-pyrazol-4-yl)amino]quinazolin-7-yl}-3-fluoropiperidin-1-yl)oxolan-3-ol]",7.67
5,"Cc1cc2cnc(Nc3cnn(C4CC4)c3Cl)nc2cc1C1CCN([C@@H]2COC[C@@H]2O)[C@@H](C)C1 (single isomer, unassigned) [Ex-4.243, (3S,4S)(2S) or (3R,4R)(2S) 4-[4-{2-[(5-chloro-1-cyclopropyl-1H-pyrazol-4-yl)amino]-6-methylquinazolin-7-yl}-2-methylpiperidin-1-yl]oxolan-3-ol]",>9.20
6,"CO[C@H]1COC[C@H]1N1CC[C@@H](c2cc3nc(Nc4cnn(C5CC5(F)F)c4Cl)ncc3cc2C)[C@H](F)C1 (single isomer, unassigned) [Ex-4.244, (R)(3S,4S)(3S,4S) or (R)(3S,4S)(3R,4R) or (R)(3R,4R)(3S,4S) or (R)(3R,4R)(3R,4R) or (S)(3S,4S)(3S,4S) or (S)(3S,4S)(3R,4R) or (S)(3R,4R)(3S,4S) or (S)(3R,4R)(3R,4R) N-[5-chloro-1-(2,2-difluorocyclopropyl)-1H-pyrazol-4-yl]-7-[3-fluoro-1-(4-methoxyoxolan-3-yl)piperidin-4-yl]-6-methylquinazolin-2-amine]",>9.20
7,"Cn1nc(C(C)(C)C)cc1Nc1ncc2cc(Cl)c([C@@H]3CCN([C@]4(C)COC[C@@H]4O)C[C@H]3F)cc2n1 (single isomer, unassigned) [Ex-4.245, (3S,4S)(3S,4S) or (3S,4S)(3R,4R) or (3R,4R)(3S,4S) or (3R,4R)(3R,4R) 4-(4-{2-[(3-tert-butyl-1-methyl-1H-pyrazol-5-yl)amino]-6-chloroquinazolin-7-yl}-3-fluoropiperidin-1-yl)-4-methyloxolan-3-ol]",>9.20
8,"CO[C@@H]1COC[C@@H]1N1CC[C@@H](c2cc3nc(Nc4cnn(C5CC5(F)F)c4Cl)ncc3cc2C)[C@H](F)C1 (single isomer, unassigned) [Ex-4.246, (R)(3S,4S)(3S,4S) or (R)(3S,4S)(3R,4R) or (R)(3R,4R)(3S,4S) or (R)(3R,4R)(3R,4R) or (S)(3S,4S)(3S,4S) or (S)(3S,4S)(3R,4R) or (S)(3R,4R)(3S,4S) or (S)(3R,4R)(3R,4R) N-[5-chloro-1-(2,2-difluorocyclopropyl)-1H-pyrazol-4-yl]-7-[3-fluoro-1-(4-methoxyoxolan-3-yl)piperidin-4-yl]-6-methylquinazolin-2-amine]",8.22
9,"C[C@]1(N2CC[C@@H](c3cc4nc(Nc5cnn(C6CC6)c5Cl)ncc4cc3Cl)[C@H](F)C2)COC[C@H]1O (single isomer, unassigned) [Ex-4.247, (3S,4S)(3S,4S) or (3S,4S)(3R,4R) or (3R,4R)(3S,4S) or (3R,4R)(3R,4R) 4-(4-{6-chloro-2-[(5-chloro-1-cyclopropyl-1H-pyrazol-4-yl)amino]quinazolin-7-yl}-3-fluoropiperidin-1-yl)-4-methyloxolan-3-ol]",>9.20
10,"CO[C@H]1COC[C@H]1N1CC[C@@H](c2cc3nc(Nc4cnn(C5CC5)c4Cl)ncc3cc2C)[C@H](F)C1 (single isomer, unassigned) [Ex-4.248, (3S,4S)(3S,4S) or (3S,4S)(3R,4R) or (3R,4R)(3S,4S) or (3R,4R)(3R,4R)N-(5-chloro-1-cyclopropyl-1H-pyrazol-4-yl)-7-[3-fluoro-1-(4-methoxyoxolan-3-yl)piperidin-4-yl]-6-methylquinazolin-2-amine]",>9.20
11,"C[C@@]1(N2CC[C@@H](c3cc4nc(Nc5cnn(C6CC6)c5Cl)ncc4cc3Cl)[C@H](F)C2)COC[C@@H]1O (single isomer, unassigned) [Ex-4.249, (3S,4S)(3S,4S) or (3S,4S)(3R,4R) or (3R,4R)(3S,4S) or (3R,4R)(3R,4R) 4-(4-{6-chloro-2-[(5-chloro-1-cyclopropyl-1H-pyrazol-4-yl)amino]quinazolin-7-yl}-3-fluoropiperidin-1-yl)-4-methyloxolan-3-ol]",>9.20
12,"CO[C@H]1COC[C@H]1N1CC[C@@H](c2cc3nc(Nc4cnn(C5CC5)c4Cl)ncc3cc2C)[C@H](F)C1 (single isomer, unassigned) [Ex-4.250, (3S,4S)(3S,4S) or (3S,4S)(3R,4R) or (3R,4R)(3S,4S) or (3R,4R)(3R,4R) N-(5-chloro-1-cyclopropyl-1H-pyrazol-4-yl)-7-[3-fluoro-1-(4-methoxyoxolan-3-yl)piperidin-4-yl]-6-methylquinazolin-2-amine]",8.22
13,"Cn1nc(C(F)(F)F)cc1Nc1ncc2cc(Cl)c([C@@H]3CCN([C@]4(C)COC[C@@H]4O)C[C@H]3F)cc2n1 (single isomer, unassigned) [Ex-4.251, (3S,4S)(3S,4S) or (3S,4S)(3R,4R) or (3R,4R)(3S,4S) or (3R,4R)(3R,4R) 4-[4-(6-chloro-2-{[1-methyl-3-(trifluoromethyl)-1H-pyrazol-5-yl]amino}quinazolin-7-yl)-3-fluoropiperidin-1-yl]-4-methyloxolan-3-ol]",9.05
14,"Cn1nc(C(F)(F)F)cc1Nc1ncc2cc(Cl)c([C@@H]3CCN([C@@]4(C)COC[C@H]4O)C[C@H]3F)cc2n1 (single isomer, unassigned) [Ex-4.252, (3S,4S)(3S,4S) or (3S,4S)(3R,4R) or (3R,4R)(3S,4S) or (3R,4R)(3R,4R) 4-[4-(6-chloro-2-{[1-methyl-3-(trifluoromethyl)-1H-pyrazol-5-yl]amino}quinazolin-7-yl)-3-fluoropiperidin-1-yl]-4-methyloxolan-3-ol]",6.61
15,"Cn1ncc(Nc2ncc3cc(Cl)c([C@@H]4CCN([C@@]5(C)COC[C@H]5O)C[C@H]4F)cc3n2)c1C(F)(F)F (single isomer, unassigned) [Ex-4.253, (3S,4S)(3S,4S) or (3S,4S)(3R,4R) or (3R,4R)(3S,4S) or (3R,4R)(3R,4R) 4-[4-(6-chloro-2-{[1-methyl-5-(trifluoromethyl)-1H-pyrazol-4-yl]amino}quinazolin-7-yl)-3-fluoropiperidin-1-yl]-4-methyloxolan-3-ol]",>9.20
16,"Cn1ncc(Nc2ncc3cc(Cl)c([C@@H]4CCN([C@]5(C)COC[C@@H]5O)C[C@H]4F)cc3n2)c1C(F)(F)F (single isomer, unassigned) [Ex-4.254, (3S,4S)(3S,4S) or (3S,4S)(3R,4R) or (3R,4R)(3S,4S) or (3R,4R)(3R,4R) 4-[4-(6-chloro-2-{[1-methyl-5-(trifluoromethyl)-1H-pyrazol-4-yl]amino}quinazolin-7-yl)-3-fluoropiperidin-1-yl]-4-methyloxolan-3-ol]",>9.20
17,"Cc1c(Nc2ncc3cc(Cl)c([C@@H]4CCN([C@@H]5COC[C@@H]5O)C[C@H]4F)cc3n2)cnn1C (single isomer, unassigned) [Ex-4.255, (3S,4S)(3S,4S) or (3S,4S)(3R,4R) or (3R,4R)(3S,4S) or (3R,4R)(3R,4R) 4-(4-(6-chloro-2-((1,5-dimethyl-1H-pyrazol-4-yl)amino)quinazolin-7-yl)-3-fluoropiperidin-1-yl)tetrahydrofuran-3-ol]",>9.20
18,"Cc1c(Nc2ncc3cc(Cl)c([C@@H]4CCN([C@H]5COC[C@H]5O)C[C@H]4F)cc3n2)cnn1C (single isomer, unassigned) [Ex-4.256, (3S,4S)(3S,4S) or (3S,4S)(3R,4R) or (3R,4R)(3S,4S) or (3R,4R)(3R,4R) 4-(4-(6-chloro-2-((1,5-dimethyl-1H-pyrazol-4-yl)amino)quinazolin-7-yl)-3-fluoropiperidin-1-yl)tetrahydrofuran-3-ol]",>9.20
